Experimental data taken from ChEMBL document CHEMBL2074503, “Role of organic anion-transporting polypeptides, OATP-A, OATP-C and OATP-8, in the human placenta-maternal liver tandem excretory pathway for foetal bilirubin” (Biochem J, 2003).
Values belong to the molecule of their own block, whether it stands above or below them.

Assays:
[1] = target: T1, Solute carrier organic anion transporter family member 1B3 (OATP1B3) (Homo sapiens, UniProt Q9NPD5); test: (§1) TP_TRANSPORTER: uptake in Xenopus laevis oocytes; format: functional, cell-based, Oocyte; conditions: Xenopus laevis oocytes expressing OATP1B3 (SLCO1B3)
T1 sequence (Q9NPD5 whole entry): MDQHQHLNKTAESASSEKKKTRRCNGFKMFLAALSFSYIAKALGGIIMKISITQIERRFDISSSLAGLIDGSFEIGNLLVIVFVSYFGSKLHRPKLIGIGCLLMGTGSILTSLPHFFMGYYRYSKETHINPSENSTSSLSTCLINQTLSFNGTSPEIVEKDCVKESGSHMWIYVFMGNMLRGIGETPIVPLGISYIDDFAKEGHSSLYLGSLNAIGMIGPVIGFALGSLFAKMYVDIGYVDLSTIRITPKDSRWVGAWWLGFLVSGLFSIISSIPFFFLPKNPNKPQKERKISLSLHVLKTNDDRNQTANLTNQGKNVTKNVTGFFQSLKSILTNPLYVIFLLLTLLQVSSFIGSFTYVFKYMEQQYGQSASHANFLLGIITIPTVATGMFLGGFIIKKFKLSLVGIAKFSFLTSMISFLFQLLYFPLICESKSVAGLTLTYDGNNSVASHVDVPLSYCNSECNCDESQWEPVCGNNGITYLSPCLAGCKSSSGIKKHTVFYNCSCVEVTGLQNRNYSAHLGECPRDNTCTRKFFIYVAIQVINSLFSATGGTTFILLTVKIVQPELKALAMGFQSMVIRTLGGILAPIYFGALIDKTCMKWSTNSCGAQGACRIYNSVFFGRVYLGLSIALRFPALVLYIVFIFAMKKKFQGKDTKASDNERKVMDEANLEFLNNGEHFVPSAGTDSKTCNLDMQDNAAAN

[2] = target: T2, Solute carrier organic anion transporter family member 1A2 (Homo sapiens, UniProt P46721); test: (§2) TP_TRANSPORTER: inhibition of E217betaG uptake (E217betaG: 10 uM) by Bilirubin at a concentration of 100 u M in Xenopus laevis oocytes; format: functional, cell-based; conditions: oocyte, 100 µM
T2 sequence (P46721 whole entry): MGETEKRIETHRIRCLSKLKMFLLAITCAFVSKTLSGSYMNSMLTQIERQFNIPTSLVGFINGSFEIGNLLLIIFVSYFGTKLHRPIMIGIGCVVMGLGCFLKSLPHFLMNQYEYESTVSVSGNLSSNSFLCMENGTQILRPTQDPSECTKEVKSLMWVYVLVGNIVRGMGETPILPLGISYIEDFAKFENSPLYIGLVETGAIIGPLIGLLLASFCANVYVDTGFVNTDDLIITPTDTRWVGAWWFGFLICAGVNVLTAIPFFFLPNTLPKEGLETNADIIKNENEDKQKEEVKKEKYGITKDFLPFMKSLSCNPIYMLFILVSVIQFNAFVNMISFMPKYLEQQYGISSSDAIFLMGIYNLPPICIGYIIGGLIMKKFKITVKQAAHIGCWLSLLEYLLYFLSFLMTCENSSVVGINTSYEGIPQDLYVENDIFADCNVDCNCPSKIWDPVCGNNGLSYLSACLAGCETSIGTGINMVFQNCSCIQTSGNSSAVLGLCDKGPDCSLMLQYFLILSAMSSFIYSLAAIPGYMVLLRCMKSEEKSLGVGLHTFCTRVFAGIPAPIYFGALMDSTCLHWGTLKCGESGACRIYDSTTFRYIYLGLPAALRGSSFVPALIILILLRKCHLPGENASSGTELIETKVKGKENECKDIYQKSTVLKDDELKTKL

[3] = target: T3, Solute carrier organic anion transporter family member 1B1 (Homo sapiens, UniProt Q9Y6L6); test: as §2; format: functional, cell-based; conditions: oocyte, 100 µM
T3 sequence (Q9Y6L6 whole entry): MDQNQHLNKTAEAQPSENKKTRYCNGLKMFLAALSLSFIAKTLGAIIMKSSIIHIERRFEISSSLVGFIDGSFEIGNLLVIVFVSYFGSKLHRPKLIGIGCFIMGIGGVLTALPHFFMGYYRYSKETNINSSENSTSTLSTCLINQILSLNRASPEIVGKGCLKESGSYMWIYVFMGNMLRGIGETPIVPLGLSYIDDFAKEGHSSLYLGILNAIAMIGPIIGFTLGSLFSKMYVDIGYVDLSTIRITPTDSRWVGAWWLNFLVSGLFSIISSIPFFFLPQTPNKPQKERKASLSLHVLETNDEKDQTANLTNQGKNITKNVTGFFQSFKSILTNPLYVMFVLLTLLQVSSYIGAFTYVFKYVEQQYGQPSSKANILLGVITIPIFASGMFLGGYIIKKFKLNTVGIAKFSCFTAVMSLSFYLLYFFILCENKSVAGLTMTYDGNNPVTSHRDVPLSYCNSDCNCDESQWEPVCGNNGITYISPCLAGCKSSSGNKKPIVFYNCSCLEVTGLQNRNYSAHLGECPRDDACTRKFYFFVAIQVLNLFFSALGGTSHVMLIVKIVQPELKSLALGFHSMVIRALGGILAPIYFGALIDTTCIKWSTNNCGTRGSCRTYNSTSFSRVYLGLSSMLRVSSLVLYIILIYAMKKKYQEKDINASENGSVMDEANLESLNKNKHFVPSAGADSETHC

[4] = target: T4, Solute carrier organic anion transporter family member 1B3 (Homo sapiens, UniProt Q9NPD5); test: as §2; format: functional, cell-based; conditions: oocyte, 100 µM
T4 sequence (Q9NPD5 whole entry): T1 sequence (Q9NPD5 whole entry)

[5] = target: T2, Solute carrier organic anion transporter family member 1A2; test: (§3) TP_TRANSPORTER: inhibition of UCB uptake (UCB: 10 uM) by Estradiol-17beta-D-glucuronide at a concentration of 100 u M in Xenopus laevis oocytes; format: functional, cell-based; conditions: oocyte, 100 µM
[6] = target: T3, Solute carrier organic anion transporter family member 1B1; test: as §3; format: functional, cell-based; conditions: oocyte, 100 µM
[7] = target: T4, Solute carrier organic anion transporter family member 1B3; test: as §3; format: functional, cell-based; conditions: oocyte, 100 µM
[8] = substrate: C=CC1=C(C)/C(=C/c2[nH]c(Cc3[nH]c(/C=C4\NC(=O)C(C)=C4C=C)c(C)c3CCC(=O)O)c(CCC(=O)O)c2C)NC1=O; test: as §1; format: functional, cell-based, Oocyte

Km [1]: 0.0391 µM
Activity [2]: inhibitor [+]
Activity [3]: inhibitor [+]
Activity [4]: inhibitor [+]
Molecule: C=CC1=C(C)/C(=C/c2[nH]c(Cc3[nH]c(/C=C4\NC(=O)C(C)=C4C=C)c(C)c3CCC(=O)O)c(CCC(=O)O)c2C)NC1=O [BILIRUBIN]

Molecule: C[C@]12CC[C@@H]3c4ccc(O)cc4CC[C@H]3[C@@H]1CC[C@@H]2O[C@@H]1O[C@H](C(=O)O)[C@@H](O)[C@H](O)[C@H]1O [ESTRADIOL 17B GLUCURONIDE]
Activity [5]: inhibitor [+]
Activity [6]: inhibitor [+]
Activity [7]: inhibitor [+]

B1: Solute carrier organic anion transporter family member 1B1 (Homo sapiens) (protein)
chain: T3 sequence (Q9Y6L6 whole entry)
Km [8]: 0.0076 µM
